The target in test [1] is T1, N-glycosylase/DNA lyase (Homo sapiens, UniProt O15527). The test is described as follows: Inhibition of human OGG1 assessed as reduction in free 8-oxo-Gua release using gamma-irradiated calf thymus DNA substrate incubated for 1 hr by GC-MS/MS assay.
The target in test [2] is T1, N-glycosylase/DNA lyase. The experiment in a line: Inhibition of human OGG1 assessed as protection against NaOH-mediated strand cleavage using AP-containing substrate. Further details: scale not given: the % may be the effect or the level left.
Test [3] concerns the target T1, N-glycosylase/DNA lyase. The experiment in a line: Inhibition of human OGG1 assessed as reduction in AP lyase activity using AP-containing substrate.
Test [4] deals with T2, Endonuclease 8-like 1 (Homo sapiens, UniProt Q96FI4). The experiment in a line: Inhibition of NEIL1 (unknown origin) assessed as remaining enzyme activity at 50 uM using Sp/Gh substrate incubated for 40 mins by TAMRA fluorescence-based assay.
T2 sequence (Q96FI4 whole entry): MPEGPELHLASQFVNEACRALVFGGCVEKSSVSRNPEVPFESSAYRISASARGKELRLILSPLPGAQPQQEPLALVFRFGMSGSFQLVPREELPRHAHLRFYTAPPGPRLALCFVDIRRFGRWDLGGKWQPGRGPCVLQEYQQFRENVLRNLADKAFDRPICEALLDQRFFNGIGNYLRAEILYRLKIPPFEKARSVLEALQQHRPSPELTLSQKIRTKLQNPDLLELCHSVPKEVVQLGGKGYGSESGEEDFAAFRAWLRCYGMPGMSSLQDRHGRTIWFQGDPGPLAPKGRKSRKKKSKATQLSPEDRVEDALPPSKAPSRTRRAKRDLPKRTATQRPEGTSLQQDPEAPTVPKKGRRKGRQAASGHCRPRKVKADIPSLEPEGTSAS
Test [5] can be described thus: Selectivity index, ratio of IC50 for inhibition of Escherichia coli FPG using 8-oxo-Gua substrate incubated for 10 mins by TAMRA fluorescence-based assay to IC50 for inhibition of human OGG1 incubated for 30 mins using 8-oxo-Gua-containing substrate by TAMRA fluorescence-based assay.
The species named for test [6] is Homo sapiens. The test is described as follows: Selectivity index, ratio of IC50 for inhibition of NEIL1 (unknown origin) using Sp/Gh substrate incubated for 40 mins by TAMRA fluorescence-based assay to IC50 for inhibition of human OGG1 incubated for 30 mins using 8-oxo-Gua-containing substrate by TAMRA fluorescence-based assay.
The target in test [7] is T1, N-glycosylase/DNA lyase. As to conditions: 0.08 to 8 uM.
Description: Inhibition of human OGG1 at 0.08 to 8 uM incubated for 30 mins using 8-oxo-Gua-containing substrate by PAGE-based cleavage assay
For test [8], the target named is T1, N-glycosylase/DNA lyase. The test is described as follows: Inhibition of human OGG1 assessed as reduction in free Inhibition of human OGG1 assessed as reduction in free FapyGua release using gamma-irradiated calf thymus DNA substrate incubated for 1 hr by GC-MS/MS assay.
Test [9] deals with T3, Endonuclease III-like protein 1 (Homo sapiens) (UniProt P78549).
T3 sequence (whole entry): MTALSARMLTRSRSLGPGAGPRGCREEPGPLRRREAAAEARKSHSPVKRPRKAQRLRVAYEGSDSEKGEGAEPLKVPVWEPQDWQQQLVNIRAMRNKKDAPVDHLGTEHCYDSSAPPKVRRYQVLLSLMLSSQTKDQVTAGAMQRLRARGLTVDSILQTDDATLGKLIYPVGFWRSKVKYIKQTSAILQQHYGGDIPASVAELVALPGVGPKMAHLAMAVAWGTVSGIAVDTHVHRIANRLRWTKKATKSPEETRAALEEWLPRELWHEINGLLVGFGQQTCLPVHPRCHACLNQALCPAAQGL
The experiment in a line: Inhibition of NTH1 (unknown origin) assessed as remaining enzyme activity at 50 uM incubated for 40 mins by TAMRA fluorescence-based assay.

In test [10] the target is T1, N-glycosylase/DNA lyase. The experiment in a line: Inhibition of human OGG1 catalytic activity assessed as reduction trapping of substrates at 10 uM using 8-oxo-Gua substrate in presence of sodium cyno-borohydride by gel electrophoresis method.
Test [11] deals with T1, N-glycosylase/DNA lyase. The test is described as follows: Inhibition of human OGG1 catalytic activity assessed as reduction trapping of substrates at 10 uM using AP site containing substrate in presence of sodium cyno-borohydride by gel electrophoresis method.
Test [12] is filed under the species Homo sapiens. The test is described as follows: Selectivity index, ratio of IC50 for inhibition of NTH1 (unknown origin) incubated for 40 mins by TAMRA fluorescence-based assay to IC50 for inhibition of human OGG1 incubated for 30 mins using 8-oxo-Gua-containing substrate by TAMRA fluorescence-based assay.
The target of test [13] is T4, Formamidopyrimidine-DNA glycosylase (Escherichia coli (strain K12)) (UniProt P05523).
T4 sequence (whole entry): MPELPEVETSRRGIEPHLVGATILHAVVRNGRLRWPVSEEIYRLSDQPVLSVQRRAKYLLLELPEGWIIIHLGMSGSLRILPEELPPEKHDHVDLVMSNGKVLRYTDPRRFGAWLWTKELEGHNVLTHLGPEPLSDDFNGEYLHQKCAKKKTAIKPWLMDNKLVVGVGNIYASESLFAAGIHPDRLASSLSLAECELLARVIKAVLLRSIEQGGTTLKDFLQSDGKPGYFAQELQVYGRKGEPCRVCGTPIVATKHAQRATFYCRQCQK
The test is described as follows: Inhibition of Escherichia coli FPG assessed as remaining enzyme activity at 50 uM using 8-oxo-Gua substrate incubated for 10 mins by TAMRA fluorescence-based assay.

Test [14] addresses T4, Formamidopyrimidine-DNA glycosylase (Escherichia coli (strain K12)). The experiment in a line: Inhibition of Escherichia coli FPG assessed as reduction in enzyme-mediated incision using compound pre-incubated with AP-site containing DNA substrate for 30 mins at 37 degC followed by enzyme addition.
The target in test [15] is T5, Formamidopyrimidine-DNA glycosylase (Escherichia coli (strain K12), UniProt P05523).
T5 sequence (P05523 whole entry): T4 sequence (whole entry)
The experiment in a line: Inhibition of Escherichia coli FPG using 8-oxo-Gua substrate incubated for 10 mins by TAMRA fluorescence-based assay.

The target in test [16] is T1, N-glycosylase/DNA lyase. The experiment in a line: Inhibition of human OGG1 binding to 8-oxo-Gua substrate using compound pre-incubated with enzyme for 5 to 10 mins before substrate addition and further incubated for 5 mins by native gel electrophoresis based by gel-shift assay.
A short description of test [17]: Binding affinity to duplex DNA (unknown origin) assessed as induction of DNA intercalation at 50 uM incubated for 30 mins by gel electrophoresis.
The target of test [18] is T2, Endonuclease 8-like 1. The experiment in a line: Inhibition of NEIL1 (unknown origin) using Sp/Gh substrate incubated for 40 mins by TAMRA fluorescence-based assay.
Test [19] has as its target T1, N-glycosylase/DNA lyase. The test is described as follows: Inhibition of human OGG1 catalytic activity assessed as reduction trapping of substrates using AP site containing substrate by measuring concentration of compound needed to reduce borohydride trapping by 50% in presence of sodium cyno-borohydride by gel electrophoresis method.
For test [20], the target named is T1, N-glycosylase/DNA lyase. The test is described as follows: Inhibition of human OGG1 catalytic activity assessed as reduction trapping of substrates using 8-oxo-Gua substrate by measuring concentration of compound needed to reduce borohydride trapping by 50% in presence of sodium cyno-borohydride by gel electrophoresis method.
For test [21], the target named is T6, Endonuclease III-like protein 1 (Homo sapiens, UniProt P78549).
T6 sequence (P78549 whole entry): T3 sequence (whole entry)
The test is described as follows: Inhibition of NTH1 (unknown origin) incubated for 40 mins by TAMRA fluorescence-based assay.

For test [22], the target named is T3, Endonuclease III-like protein 1 (Homo sapiens). The test is described as follows: Inhibition of NTH1 (unknown origin) assessed as effect on DNA lesions per 10^6 DNA bases using thymine glycol substrate incubated for 1 hr by GC-MS/MS assay.
The target is the same in test [23]. The experiment in a line: Inhibition of NTH1 (unknown origin) assessed as effect on DNA lesions per 10^6 DNA bases using FapyAde substrate incubated for 1 hr by GC-MS/MS assay.
The target of test [24] is T2, Endonuclease 8-like 1. The experiment in a line: Inhibition of NEIL1 (unknown origin) assessed as effect on DNA lesions per 10^6 DNA bases using FapyGua substrate incubated for 1 hr by GC-MS/MS assay.
Test [25] concerns the target T4, Formamidopyrimidine-DNA glycosylase (Escherichia coli (strain K12)). The experiment in a line: Inhibition of Escherichia coli FPG assessed as reduction in enzyme-mediated incision using compound pre-incubated with 8-oxo-Gua substrate for 30 mins at 37 degC followed by enzyme addition.
In test [26] the target is T2, Endonuclease 8-like 1. The test is described as follows: Inhibition of NEIL1 (unknown origin) assessed as effect on DNA lesions per 10^6 DNA bases using 5-OH-5-MeHyd substrate incubated for 1 hr by GC-MS/MS assay.
Test [27] addresses T2, Endonuclease 8-like 1. The experiment in a line: Inhibition of NEIL1 (unknown origin) assessed as effect on DNA lesions per 10^6 DNA bases using FapyAde substrate incubated for 1 hr by GC-MS/MS assay.
Test [28] addresses T3, Endonuclease III-like protein 1 (Homo sapiens). The test is described as follows: Inhibition of NTH1 (unknown origin) assessed as effect on DNA lesions per 10^6 DNA bases using 5-OH-5-MeHyd substrate incubated for 1 hr by GC-MS/MS assay.
The target is the same in test [29]. The test is described as follows: Inhibition of NTH1 (unknown origin) assessed as effect on DNA lesions per 10^6 DNA bases using 5-hydroxycytosine substrate incubated for 1 hr by GC-MS/MS assay.
Test [30] shares this target. The experiment in a line: Inhibition of NTH1 (unknown origin) assessed as effect on DNA lesions per 10^6 DNA bases using FapyGua substrate incubated for 1 hr by GC-MS/MS assay.

Molecules are shown by their SMILES. Active and inactive are the calls of the source. The rule behind the calls is not given here.

T1 sequence (O15527 whole entry): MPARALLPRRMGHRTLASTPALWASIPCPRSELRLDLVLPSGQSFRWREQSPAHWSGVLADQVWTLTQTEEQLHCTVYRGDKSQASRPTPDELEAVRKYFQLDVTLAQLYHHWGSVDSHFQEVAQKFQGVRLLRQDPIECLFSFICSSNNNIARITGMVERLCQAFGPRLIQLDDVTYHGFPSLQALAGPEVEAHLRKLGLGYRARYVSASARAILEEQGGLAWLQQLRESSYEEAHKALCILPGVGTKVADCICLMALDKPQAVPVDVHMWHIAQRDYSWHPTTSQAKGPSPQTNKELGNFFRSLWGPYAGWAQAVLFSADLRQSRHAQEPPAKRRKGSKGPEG

On to `NNC(=O)c1ccncc1`, for which the inhibition entry at N-glycosylase/DNA lyase [1], at N-glycosylase/DNA lyase [3], on N-glycosylase/DNA lyase [7] and at N-glycosylase/DNA lyase [8] was “inactive” in each case. Besides, the Activity turned out to be 1% on N-glycosylase/DNA lyase [2], 80.6% at Endonuclease 8-like 1 [4] and 98% in [9]. Also, the Ratio IC50 (in [5]; in the test listed under Homo sapiens [6]; in the test listed under Homo sapiens [12]) was > 200 in each case. Also, the inhibition result on N-glycosylase/DNA lyase [10] and at N-glycosylase/DNA lyase [11] was “Active” throughout.

`NNC(=O)c1sc2cccc(Cl)c2c1Cl`: the Activity in test [13] was determined as 91.7%; on N-glycosylase/DNA lyase [2], 2%; on Endonuclease 8-like 1 [4] it was 84.6%; in test [9], 63.1%. For the same compound, the inhibition result at N-glycosylase/DNA lyase [1], at N-glycosylase/DNA lyase [3], at N-glycosylase/DNA lyase [8], on N-glycosylase/DNA lyase [10] and at N-glycosylase/DNA lyase [11] was “Active” each time. For the same compound, the inhibition entry (in test [14]; on N-glycosylase/DNA lyase [16]; in test [22]; in [23]; on Endonuclease 8-like 1 [24]; in test [25]) was “inactive” in each case. Moreover, the inhibition entry (on Endonuclease 8-like 1 [26]; on Endonuclease 8-like 1 [27]; in [28]; in test [29]; in [30]) was “inactive” each time. The IC50 in test [15] is > 50000 nM; against Endonuclease 8-like 1 [18], > 50000 nM; on N-glycosylase/DNA lyase [19] it was 740 nM; on N-glycosylase/DNA lyase [20], 1030 nM; in test [21], > 50000 nM. The outcome in test [17] was inactive. Further, the Ratio IC50 (in [5]; in the test listed under Homo sapiens [6]; in the test filed under Homo sapiens [12]) was > 200 throughout.

One may read the IC50 as the concentration that gives 50% inhibition.
